Source: patent US4820721A, “1-aryl-5-(2-oxo-1-pyrrolidinyl)-1,2,3-triazolines as novel anticonvulsants” (priority 1988, dated 1989)

Experiments:
in vivo = assay: in vivo; design: species or system mice; details: mouse
Description: Neurotoxicity was evaluated by the rotorod ataxia test (Dunham et al, J. Am. Pharm. Assoc. Sci. Ed., 46, 208, 1957). The animal was placed on a wooden rod of 2.8-cm diameter rotating at 6 rpm. Normal mice can remain on a rod rotating at this speed indefinitely.

[1] = subcutaneous pentylenetetrazole (Metrazole) seizure threshold (scMet) test; assay type: in vivo; details: Mus musculus, sc; Phase II; male albino mice; 85 mg/kg pentylenetetrazol s.c.
Description: (§1) The anticonvulsant activity was evaluated by subjecting male albino mice to the MES test and the scMet test. The maximal electroshock seizure test (MES) was performed according to the method of Swinyard et al (J. Pharmacol. Exp. Ther. 106, 319, 1952), and abolition of the hind limb tonic extensor component of the maximal seizures was defined as protection. In the subcutaneous pentylenetetrazole seizure threshold test (scMet), 85 mg/kg of pentylenetetrazol was administered as a 0.5% solution subcutaneously in the posterior midline, and failure to observe even a threshold seizure (a single episode of clonic spasms of at least 5-s duration) was defined as protection.

[2] = maximal electroshock seizure (MES) test; assay type: in vivo; details: Mus musculus; Phase II; male albino mice
Description: as §1

[3] = Phase I anticonvulsant activity (MES and scMet tests); assay type: in vivo; details: Mus musculus, male albino mice, read-out: Activity, Phase I (active dose)
Description: They afford protection in both the scMet and MES seizure models. The 1-p-chlorophenyl-5-(2-oxo-1-pyrrolidinyl)-1,2,3-triazoline is active in the 100 mg/kg dose and the 1-phenyl-5-(2-oxo-1-pyrrolidinyl)-1,2,3-triazoline is active in the 300 mg/kg dose.
as §1

Row | Structure (SMILES) | TD50 (in vivo) | ED50 [1] | ED50 [2] | minimal effective dose [3]
1 | O=C1CCCN1C1CN=NN1c1ccc(Cl)cc1 (centres unmarked) [1-p-chlorophenyl-5-(2-oxo-1-pyrrolidinyl)-1,2,3-triazoline] | 249 mg/kg | 77.2 mg/kg | 116 mg/kg | 100 mg/kg
2 | O=C1CCCN1C1CN=NN1c1ccccc1 (centres unmarked) [1-phenyl-5-(2-oxo-1-pyrrolidinyl)-1,2,3-triazoline] |  |  |  | 300 mg/kg
